We go through 15 compounds from ChEMBL document CHEMBL2073748, “Na(+)-dependent carnitine transport by organic cation transporter (OCTN2): its pharmacological and toxicological relevance” (J Pharmacol Exp Ther, 1999).

The target of series [1] is T1, OCTN2 (organic cation/carnitine transporter 2) (Homo sapiens, UniProt O76082).
T1 sequence (O76082 whole entry): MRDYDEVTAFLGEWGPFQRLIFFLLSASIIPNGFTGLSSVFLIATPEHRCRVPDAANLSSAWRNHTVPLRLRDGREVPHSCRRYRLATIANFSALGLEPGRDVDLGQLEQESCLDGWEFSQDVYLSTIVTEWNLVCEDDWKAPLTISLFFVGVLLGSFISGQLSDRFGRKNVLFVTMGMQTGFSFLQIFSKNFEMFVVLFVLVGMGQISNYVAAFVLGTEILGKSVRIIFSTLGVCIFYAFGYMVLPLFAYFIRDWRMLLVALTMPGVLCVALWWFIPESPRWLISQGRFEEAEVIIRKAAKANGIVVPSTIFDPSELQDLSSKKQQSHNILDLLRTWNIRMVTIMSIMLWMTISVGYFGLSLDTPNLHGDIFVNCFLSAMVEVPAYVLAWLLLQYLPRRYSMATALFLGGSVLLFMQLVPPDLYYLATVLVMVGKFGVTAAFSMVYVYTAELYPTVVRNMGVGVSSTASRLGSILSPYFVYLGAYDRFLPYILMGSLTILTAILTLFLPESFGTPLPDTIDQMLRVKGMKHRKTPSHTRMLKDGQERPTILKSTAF
As to the kind of experiment: TP_TRANSPORTER: inhibition of Carnitine uptake (Carnitine: 0.010? uM, S-methylmethionine sufonium: 500 uM) in OCTN2-expressing HEK293 cells. Type of series: functional, cell-based. The arrangement: scale not given: the % may be the effect or the level left. The conditions noted are these: HEK293 cells that express OCTN2, probe Carnitine, read-out: Activity.

The target in series [2] is T2, Organic cation/carnitine transporter 2 (Homo sapiens, UniProt O76082).
T2 sequence (O76082 whole entry): T1 sequence (O76082 whole entry)
The series is described as follows: TP_TRANSPORTER: uptake in OCTN2-expressing HEK293 cells. Format: functional, cell-based.

In series [3] the target is T1, OCTN2 (organic cation/carnitine transporter 2). As to the kind of experiment: TP_TRANSPORTER: inhibition of Carnitine uptake (Carnitine: 0.010? uM, MPP+: 100 uM) in OCTN2-expressing HEK293 cells. Format: functional, cell-based. The arrangement: scale not given: the % may be the effect or the level left. The conditions noted are these: HEK293 cells that express OCTN2, probe Carnitine, read-out: Activity.

Series [4] shares this target. The series is described as follows: TP_TRANSPORTER: inhibition of Carnitine uptake (Carnitine: 0.010? uM, Aldosterone: 500 uM) in OCTN2-expressing HEK293 cells. Format: functional, cell-based. Details: scale not given: the % may be the effect or the level left. The conditions noted are these: HEK293 cells that express OCTN2, probe Carnitine, read-out: Activity.
In series [5] the target is T2, Organic cation/carnitine transporter 2. As to the kind of experiment: TP_TRANSPORTER: inhibition of Carnitine uptake (Carnitine: 0.010? uM, Arginine: 500 uM) in OCTN2-expressing HEK293 cells. Format: functional, cell-based. The conditions noted are these: hek293, 500 µM.
Series [6] shares this target. As to the kind of experiment: TP_TRANSPORTER: inhibition of Carnitine uptake (Carnitine: 0.010? uM, Carnosine: 500 uM) in OCTN2-expressing HEK293 cells. Format: functional, cell-based. The conditions noted are these: hek293, 500 µM.
Series [7] addresses T1, OCTN2 (organic cation/carnitine transporter 2). The series is described as follows: TP_TRANSPORTER: inhibition of Carnitine uptake (Carnitine: 0.010? uM, Cefsulodin: 500 uM) in OCTN2-expressing HEK293 cells. Format: functional, cell-based. The arrangement: scale not given: the % may be the effect or the level left. The conditions noted are these: HEK293 cells that express OCTN2, probe Carnitine, read-out: Activity.

The target of series [8] is T2, Organic cation/carnitine transporter 2. The series is described as follows: TP_TRANSPORTER: inhibition of Carnitine uptake (Carnitine: 0.010? uM, Cephaloglycin: 500 uM) in OCTN2-expressing HEK293 cells. Format: functional, cell-based. The conditions noted are these: hek293, 500 µM.
Series [9] shares this target. The series is described as follows: TP_TRANSPORTER: inhibition of Carnitine uptake (Carnitine: 0.010? uM, Cephalotin: 500 uM) in OCTN2-expressing HEK293 cells. Type of series: functional, cell-based. The conditions noted are these: hek293, 500 µM.
The target in series [10] is T1, OCTN2 (organic cation/carnitine transporter 2). As to the kind of experiment: in vitro. The conditions noted are these: HEK293 cells that express OCTN2, probe Carnitine.
Description: TP_TRANSPORTER: inhibition of Carnitine uptake (Carnitine: 0.010? uM, Cimetidine: 500 uM) in OCTN2-expressing HEK293 cells
Series [11] shares this target. As to the kind of experiment: in vitro. The conditions noted are these: HEK293 cells that express OCTN2, probe Carnitine. This is another data set of the same source.
Description: TP_TRANSPORTER: inhibition of Carnitine uptake (Carnitine: 0.010? uM, Clonidine: 500 uM) in OCTN2-expressing HEK293 cells
Series [12] has the same target. The series is described as follows: TP_TRANSPORTER: inhibition of Carnitine uptake (Carnitine: 0.010? uM, Corticosterone: 500 uM) in OCTN2-expressing HEK293 cells. Format: functional, cell-based. Details: scale not given: the % may be the effect or the level left. The conditions noted are these: HEK293 cells that express OCTN2, probe Carnitine, read-out: Activity.

For series [13], the target named is T2, Organic cation/carnitine transporter 2. As to the kind of experiment: TP_TRANSPORTER: inhibition of Carnitine uptake (Carnitine: 0.010? uM, Creatine: 500 uM) in OCTN2-expressing HEK293 cells. Type of series: functional, cell-based. The conditions noted are these: hek293, 500 µM.
Series [14] has the same target. As to the kind of experiment: TP_TRANSPORTER: inhibition of Carnitine uptake (Carnitine: 0.010? uM, Creatinine: 500 uM) in OCTN2-expressing HEK293 cells. Format: functional, cell-based. The conditions noted are these: hek293, 500 µM.
In series [15] the target is T1, OCTN2 (organic cation/carnitine transporter 2). As to the kind of experiment: TP_TRANSPORTER: inhibition of Carnitine uptake (Carnitine: 0.010? uM, Actinomycin D: 100 uM) in OCTN2-expressing HEK293 cells. The conditions noted are these: HEK293 cells that express OCTN2, probe Carnitine, read-out: Activity. Details: scale not given: the % may be the effect or the level left. Type of series: functional, cell-based.

Series [16] shares this target. As to the kind of experiment: TP_TRANSPORTER: inhibition of Carnitine uptake (Carnitine: 0.010? uM, Emetine: 500 uM) in OCTN2-expressing HEK293 cells. Format: functional, cell-based. Details: scale not given: the % may be the effect or the level left. The conditions noted are these: HEK293 cells that express OCTN2, probe Carnitine, read-out: Activity.

Molecules are shown by their SMILES. Starred links: 1 amine or outer side, 2 acyl side, 3 side chain; linkers in the order of their positions; H or OH if unused. Positions of bridges follow the written chain, without caps; N, C: chain ends. Non-standard residues stand in square brackets, D forms with d. Residues, ends and D or L forms follow the SMILES beside them. Chains are numbered I, II in the order given. Actinocin(9to1) = Cc1c2oc3c(C)ccc(C(=O)[*:1])c3nc-2c(C(=O)[*:2])c(N)c1=O; NMeV = CN[C@H](C(=O)O)C(C)C; Sar = CNCC(=O)O

On to `C[S+](C)CC[C@H](N)C(=O)[O-]`, for which, in series [1], the activity at 500 µM was determined as 8.7%.

For `C[n+]1ccc(-c2ccccc2)cc1`, the Activity entry in series [2] is “is not a substrate [-]”. In addition, the activity at 100 µM in series [3] turned out to be 69.8%.

With `C[C@]12CCC(=O)C=C1CC[C@@H]1[C@@H]2[C@@H](O)C[C@]2(C=O)[C@@H](C(=O)CO)CC[C@@H]12` [ALDOSTERONE], the activity at 500 µM in [4] came out at 37.1%.

`N=C(N)NCCC[C@H](N)C(=O)O` [ARGININE]: the Activity result in [5] is “is not an inhibitor [-]”.

In the case of `NCCC(=O)N[C@@H](Cc1cnc[nH]1)C(=O)O` [CARNOSINE], the Activity entry in series [6] is “is not an inhibitor [-]”.

For `NC(=O)c1cc[n+](CC2=C(C(=O)O)N3C(=O)[C@@H](NC(=O)[C@@H](c4ccccc4)S(=O)(=O)[O-])[C@H]3SC2)cc1` [CEFSULODIN], the activity at 500 µM in series [7] was 32.8%.

Turning to `CC(=O)OCC1=C(C(=O)O)N2C(=O)[C@@H](NC(=O)[C@H](N)c3ccccc3)[C@H]2SC1` [CEPHALOGLYCIN], the Activity entry in series [8] was “is not an inhibitor [-]”.

`CC(=O)OCC1=C(C(=O)O)N2C(=O)[C@@H](NC(=O)Cc3cccs3)[C@H]2SC1` [CEPHALOTHIN]: the Activity entry in series [9] was “is not an inhibitor [-]”.

With `CN/C(=N/CCSCc1nc[nH]c1C)NC#N` [CIMETIDINE], the Activity entry in [2] is “is not a substrate [-]”. This compound also yielded an activity at 500 µM in series [10] of 66.4%.

As to `Clc1cccc(Cl)c1N=C1NCCN1` [CLONIDINE], the activity at 500 µM in series [11] amounted to 67.6%.

With `C[C@]12C[C@H](O)[C@H]3[C@@H](CCC4=CC(=O)CC[C@@]43C)[C@@H]1CC[C@@H]2C(=O)CO` [CORTICOSTERONE], the activity at 500 µM in [12] was determined as 9.3%.

`CN(CC(=O)O)C(=N)N` [CREATINE]: the Activity entry in series [13] was “is not an inhibitor [-]”.

Regarding `CN1CC(=O)NC1=N` [CREATININE], in series [14], the Activity result was “is not an inhibitor [-]”.

`Cc1c2oc3c(C)ccc(C(=O)N[C@@H]4C(=O)N[C@H](C(C)C)C(=O)N5CCC[C@H]5C(=O)N(C)CC(=O)N(C)[C@@H](C(C)C)C(=O)O[C@@H]4C)c3nc-2c(C(=O)N[C@@H]2C(=O)N[C@H](C(C)C)C(=O)N3CCC[C@H]3C(=O)N(C)CC(=O)N(C)[C@@H](C(C)C)C(=O)O[C@@H]2C)c(N)c1=O` [DACTINOMYCIN] (I: T[dV]P[Sar][NMeV] / II: T[dV]P[Sar][NMeV]; ester I:1-I:C, II:1-II:C; linker I:N-II:N via Actinocin(9to1)): the Activity entry in series [2] was “is not a substrate [-]”. The activity at 100 µM in [15] came out at 69%.

For `CC[C@H]1CN2CCc3cc(OC)c(OC)cc3[C@@H]2C[C@@H]1C[C@H]1NCCc2cc(OC)c(OC)cc21` [EMETINE], the activity at 500 µM in [16] was found to be 16.6%.
